Experimental data published in US5474988A, “5-phenylpyrrolo-1,4-benzoxazine and 5-phenylpyrrolo-1,4-benzothiazine compounds, process and intermediates for their production and pharmaceutical compositions containing them” (Kali-Chemie Pharma GmbH, priority 1993, dated 1995).

Key:
5-lipoxygenase [1] = target: T1, 5-lipoxygenase (Cavia porcellus, UniProt A0A286X958); assay: inhibitory activity on free 5-lipoxygenase concentrated from peritoneal PMNs of the guinea-pig (5-HETE formation); format: biochemical; conditions: 10^-5 mole/liter; guinea-pig 5-LO, 37° C.; read-out: In vitro % inhibitory activity on 5-HETE formation caused by free 5-LO
T1 construct: The 5-LO was concentrated in a known manner from PMNs of male Dunkin-Hartley guinea-pigs; endogenous in cells; host or cells: peritoneal PMNs of male Dunkin-Hartley guinea-pigs, homogenized; 10,000 x g supernatant used as enzyme solution
T1 sequence (A0A286X958 1-674): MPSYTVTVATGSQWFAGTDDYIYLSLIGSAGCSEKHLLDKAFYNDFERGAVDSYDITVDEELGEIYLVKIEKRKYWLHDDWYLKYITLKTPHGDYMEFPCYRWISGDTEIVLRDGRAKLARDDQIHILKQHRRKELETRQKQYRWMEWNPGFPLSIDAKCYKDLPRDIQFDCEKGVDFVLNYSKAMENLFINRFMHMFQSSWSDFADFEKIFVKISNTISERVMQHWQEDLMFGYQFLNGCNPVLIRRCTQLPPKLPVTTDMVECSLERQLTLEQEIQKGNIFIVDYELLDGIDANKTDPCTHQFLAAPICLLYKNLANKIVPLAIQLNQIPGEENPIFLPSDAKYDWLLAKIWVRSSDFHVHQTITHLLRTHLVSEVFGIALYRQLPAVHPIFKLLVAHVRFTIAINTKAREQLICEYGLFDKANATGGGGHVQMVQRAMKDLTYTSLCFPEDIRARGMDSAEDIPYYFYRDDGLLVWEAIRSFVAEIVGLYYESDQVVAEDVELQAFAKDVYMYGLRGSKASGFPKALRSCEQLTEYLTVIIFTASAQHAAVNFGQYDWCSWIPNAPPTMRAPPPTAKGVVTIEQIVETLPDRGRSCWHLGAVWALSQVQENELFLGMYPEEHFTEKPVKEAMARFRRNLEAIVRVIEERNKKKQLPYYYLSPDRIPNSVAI
Excerpt: 4b. In vitro determination of inhibitory activity on 5-lipoxygenase concentrated from peritoneal PMNs of the guinea-pig.
An inhibition of 5-lipoxygenase can be caused by direct inhibitory action of the substances on the enzyme and/or by interference with the activation of the enzyme. While in test 4a the 5-lipoxygenase inhibition of the substances was investigated in rat PMN cells, in test 4b the inhibitory activity of the substances was investigated on free 5-LO concentrated from guinea-pig PMN cells according to the method of D. Aharony et al., J. Biol. Chem. 261 (1986), 11512-11519 (1986).
The 5-LO was concentrated in a known manner from PMNs of male Dunkin-Hartley guinea-pigs (body weight 400 to 500 g) as follows. 10 ml of a solution containing 27.9 g/l of sodium thioglycolate were injected i.p. into the animals in order to induce the PMN invasion as a result of this inflammatory stimulus. After 22 hours, the animals were sacrificed by lethal ether anaesthesia. 70 ml of HBSS without Ca^++ and Mg^++ ions and containing 0.2% by weight of sodium citrate were then injected into the abdominal cavity. The cell suspension (>80% of the cells are PMNs) was withdrawn from the abdominal cavity, filtered through a cheese-making filter cloth, and washed twice with a 50 mM potassium phosphate buffer solution of pH 7.4, which contained 0.5 mM ethylenediaminetetraacetic acid, 1% by weight of gelatine and 20 μM indomethacin. The cells were resuspended, and the PMN suspension containing 10^8 cells/ml was homogenized three times for 15 seconds each in an ice-bath in a homogenizer of the Labsonic™ type set at high speed. The resulting suspension was centrifuged at 4° C. (15 minutes at 10,000×g). The supernatant liquid was used for the investigation as a solution of the free 5-LO enzyme.
The experiments were carried out at 37° C. for 7 minutes using 0.625 ml samples of this enzyme solution. For the experiments, the enzyme solution (=equivalent of 2.5×10^7 cells), 0.5 mM glutathione, 1 mM ATP and 0.3 mM calcium chloride were added to test tubes. […] of the test substance were added to the samples dissolved in sufficient dimethylformamide such that the dimethylformamide concentration in each test tube is 0.5%. Only dimethylformamide was added to the control samples. After 2 minutes, the formation of 5-(S)-hydroxy-6,8,11,14-eicosatetraenoic acid (=[…]) was initiated by addition 10 μM arachidonic acid. After 5 minutes, the reaction was terminated by addition of 0.625 ml of a mixture of methyl acetate/methanol/0.2 m citric acid 15:2:0.5 v/v/v. 5-HETE was extracted twice using this solvent mixture. The 5-HETE-containing phases were combined and evaporated to dryness under a nitrogen atmosphere. The residue was taken up in a mixture of methanol/water/acetic acid 75:21:0.02 v/v/v having a pH of 5.7, and the solution was investigated for its content of 5-HETE by means of reverse phase HPLC. To accomplish this, a […] silanized silica gel column (Hichrom® ODS2, 250×4.6 mm) was employed as the adsorbent and a mixture of methanol/water/acetic acid 75:21:0.02 adjusted to pH 5.7 with ammonia and having a flow rate of 1 ml/min was used as the eluent. 5-HETE, which was eluted as a single peak after 20 minutes, was identified by comparison with standard solutions eluted at the same time and determined using a UV light detector at a wavelength of 235 nm. Quantitative determination was carried out by comparison of the peak area obtained with peak areas occurring in the calibrated standard solutions. From the 5-HETE contents of the samples determined, the inhibitory activity of the test substances was calculated in % inhibition of 5-HETE synthesis in comparison to the control samples containing no test substance.

5-lipoxygenase [2] = assay: inhibition of 5-lipoxygenase activity in polymorphonuclear rat leucocytes (LTB4 formation); format: cell-based; conditions: 10^-5 mol/l; 22° C.
Excerpt: 4. In vitro determination of 5-lipoxygenase inhibition. 4a. In vitro determination of inhibition of 5-lipoxygenase activity in polymorphonuclear rat leucocytes. Arachidonic acid contained in cell membranes is released after activiation of the polymorphonuclear leucocytes (=PMN). During the course of this, under the action of the enzyme 5-lipoxygenase (=5-LO) arachidonic acid metabolites are synthesized which can be converted to leucotriene B4 (=LTB4) by LTA4 hydrolase. LTB4 is a principal metabolite of the arachidonic acid metabolism taking place on activation of the enzyme 5-LO by the inflammatory stimulus in the cell membrane. In in vitro systems, this metabolite is secreted from PMNs. […] To accomplish this, the content of LTB4 in a culture medium of rat peritoneal PMNs was determined after stimulation by calcimycin (=calcium-ionophore A23187) such as described by […] et al., Can. J. Physiol. Pharmacol. 67 (1989), 17. A cell suspension containing peritoneal PMNs of male Sprague-Dawley rats (body weight 200 to 250 g) was obtained in a known manner as follows: 6 ml of a solution containing 27.9 g/l of sodium thioglycolate were injected i.p. into the animals in order to induce the PMN invasion due to this inflammatory stimulus. After 22 hours, the animals were sacrificed by means of lethal ether anaesthesia. 20 ml of a Hank's salt solution (=Hank's Balanced Salt Solution=HBSS), but without Ca^++ and Mg^++ ions and with 0.2% by weight of sodium citrate, were then injected into the abdominal cavity. The suspension of accumulated cells was removed from the abdominal cavity and the cells were separated by centrifugation (10 minutes at 400×g). The cells were purified by repeated centrifugation in the presence of Ficoll-Paque®, (=metrizoic acid preparation, […], manufacturer Pharmacia), then washed twice with HBSS containing Ca^++ and Mg^++ ions and resuspended in HBSS containing Ca^ ++ and Mg^++ ions and buffered with 10 mM HEPES (=hydroxyethylpiperazinoethanesulfonic acid). In order to carry out the tests, samples of 0.7 ml of the PMN suspension (=0.5×10^6 cells) in each case were incubated for 15 minutes at 22° C. in plastic tubes containing 10 μM of the test substance in dimethylformamide or, as a control experiment, only containing dimethylformamide. The LTB4 synthesis was initiated in the samples by addition of calcimycin (final concentration 5 μm), and the samples were incubated for 10 minutes at 22° C. Only solvent was added to blank control samples. After 10 minutes, the reaction was terminated by addition of 0.3 ml of cold methanol. The samples were kept for 1 hour at 4° C. and then centrifuged (5 minutes at 10,000×g). The supernatant liquid was investigated to determine its LTB4 content by means of reverse phase high-pressure liquid chromatography (=reverse phase HPLC). […] The LTB4 was identified by comparison with authentic standard solutions eluting at the same time and determined at a wavelength of 270 nm. The LTB4 contents are determined from comparison with calibrated standard solutions, and from this the inhibitory activity of the test substances was calculated in % inhibition of the LTB4 synthesis in comparison with the control samples containing no test substance.

| Structure (SMILES) | inhibition at 10 µM (5-lipoxygenase [1]) | In vitro inhibitory activity on LTB4 formation in rat PMNs stimulated by calcium ionophore A23187 (5-lipoxygenase [2]) |
| --- | --- | --- |
| Cc1ccnc(N2CCN(CCCC3Cn4c(-c5cc(C)c(O)c(C)c5)c(C)c5cccc(c54)O3)CC2)c1 (stereo not shown) [Example 11] | 95% | – |
| COc1cc(-c2c(C)c3cccc4c3n2CC(CCC(=O)N2CCN(c3cc(C)ccn3)CC2)O4)ccc1O (stereo not shown) [Example 38] | 100% | 97% |
| COc1cc(-c2c(C)c3cccc4c3n2CC(CCCCN2CCN(c3cc(C)ccn3)CC2)S4)cc(C)c1O (stereo not shown) [Example 64] | 74% | – |
| Cc1ccnc(N2CCN(CCC3Cn4c(-c5ccc(O)cc5)c(C)c5cccc(c54)S3)CC2)c1 (stereo not shown) [Example 21] | 30% | 42% |
| Cc1ccnc(N2CCN(C(=O)CCC3Cn4c(-c5ccc(O)c(O)c5)c(C)c5cccc(c54)O3)CC2)c1 (stereo not shown) [Example 49] | 99% | 88% |
| Cc1ccc(N2CCN(CCC3Cn4c(-c5cc(C)c(O)c(C)c5)c(C)c5cccc(c54)O3)CC2)nc1 (stereo not shown) [Example 62] | 77% | 56% |
| Cc1cc(-c2c(C)c3cccc4c3n2CC(CCN2CCN(c3ccccn3)CC2)O4)cc(C)c1O (stereo not shown) [Example 59] | 70% | – |
| COc1cc(-c2c(C)c3cccc4c3n2CC(CCN2CCN(c3ncccc3C)CC2)O4)ccc1O (stereo not shown) [Example 35] | 55% | 79% |
| Cc1c(-c2ccc(O)cc2)n2c3c(cccc13)OC(CCC(=O)N1CCN(c3ccccn3)CC1)C2 (stereo not shown) [Example 36] | 65% | 89% |
| Cc1cc(-c2c(C)c3cccc4c3n2CC(CCN2CCC(N(C)c3nccc(=O)[nH]3)CC2)O4)cc(C)c1O (stereo not shown) [Example 40] | 56% | 82% |
| Cc1ccnc(N2CCN(CCCC3Cn4c(-c5ccc(O)cc5)c(C)c5cccc(c54)O3)CC2)c1 (stereo not shown) [Example 16] | 57% | 60% |
